Laboratory results as given in patent US20170165361A1, “TREATMENT OF LYSOSOMAL DISORDERS (ANTI-TNF THERAPY)” (Oxford University Innovation Limited, priority 2014, published 2017).
Several values for one entry are separate records, joined by “and”; a condition that tells them apart may be missing. Identical values can stand only once. Entries after “also recorded” stand apart in the source; their conditions may differ.

What was measured:
Type in all cases: in vivo, mouse
[1] = system: Npc1−/− mice; test: Open field rearing, manual count over 5 minutes (rearing and centre rearing); conditions: for centre rearing count (no front-limb support) / rearing count (front limb support on side walls): 5 min; for centre rearing count (no front-limb support): Humira 20 mg/kg three times a week; for rearing activity vs. controls (in words): FIG. 4; for rearing count (front limb support on side walls): Remicade 6.25 mg/kg once a week
Procedure: (§1) Enbrel® (Amgen, USA) was administered via subcutaneous injection (200 μg/animal; Koca et al., 2008) in phosphate-buffered saline (PBS) twice a week starting at […] of age (n=7). Control group animals (n=7) were administered equal volumes of PBS subcutaneously. Humira® was administered 20 mg/kg three times a week (doses converted from human doses based on differential binding coefficients against murine and human TNF) (n=4) and Remicade® 6.25 mg/kg once a week (Deveci et al., 2008) (n=5).
(§2) Spontaneous activity of each mouse was recorded weekly using both an automated activity monitor (AmLogger; Linton Instrumentation, UK) and manual counting (NPC mice have a jumping phenotype in late stages of disease that can be scored as rears in the automated system so manual counts were included for this reason). The activity monitor comprises an array of infrared beams to determine the activity and motility of the subject animal. After 5-minute acclimatization in the room, each mouse was placed in the ‘open-field’ (a plasticbox measuring 45×25×12 cm) with home cage bedding to be recorded for 5 minutes. A similar setup was used for the open field rearing study, where the number of times the mouse reared on its hind legs (either against the cage wall “rearing” or without support “centre rearing”) was counted manually for 5 minutes.
Activity levels of the mice (Npc1^−/−) were recorded and classified by either “rearing” (FIG. 4A; rearing sustained by front limb support on side walls of the open-field box) or “centre rearing” (FIG. 4B; rearing with no front-limb support). […] In particular, rearing activity was maintained in Enbrel®-treated mice until 10 weeks whilst mice in the control group were no longer able to rear without front limb support (1.71 rears vs. 0.00 rears; p=0.01).

[2] = system: Npc1−/− mice; test: Survival of Npc1−/− mice (humane end point); conditions: for effect on survival / lifespan (in words): Enbrel 200 μg/animal s.c. twice a week, Humira 20 mg/kg three times a week, Remicade 6.25 mg/kg once a week
Procedure: BALB/c mice with a mutation in the NIH allele of the Niemann Pick type Cl gene (NPCnih) were bred as heterozygotes to produce Npc1−/− (BALB/c npcnih/nih) and control genotypes (Pentchev et al., 1980). Breeding and treatment of mice were conducted as described previously (Smith et al., 2009). The humane end point of mice was defined as a loss of 10% weight within a 24 hour time frame. All procedures were conducted according to Animals (Scientific Procedures) Act 1986 under a valid Home Office License.
as §1
Upon treatment with […] Enbrel® for twice a week starting at 7 weeks of age, Npc1^−/− mice were weighed weekly until humane end point to monitor any possible effects exerted by drug treatment.

[3] = Body weight of Npc1−/− mice, weighed weekly; conditions: for effect on body weight (in words): Enbrel 200 μg twice a week, Humira 20 mg/kg three times a week, Remicade 6.25 mg/kg once a week; for body weight relative to initial weight at week 7: p<0.010
Procedure: as §1
Body weights of individual mice were recorded on a weekly basis. Tremor and locomotor analysis of both treated and control groups were conducted as described by Smith et al. (2009). The procedures are briefly detailed as follows:
Upon treatment with 200 μg Enbrel® for twice a week starting at 7 weeks of age, Npc1^−/− mice were weighed weekly until humane end point to monitor any possible effects exerted by drug treatment.

[4] = system: Npc1−/− mice; test: Locomotor activity, AmLogger automated activity monitor; conditions: Enbrel 200 μg twice a week
Procedure: as §1, §2

[5] = system: Npc1−/− mice; test: Gait analysis, CatWalk single paw parameters; conditions: Enbrel treatment, FIG. 7
Procedure: as §1
The CatWalk™ system (Noldus Information Technology, the Netherlands) was used for monitoring changes in movement patterns as indicative of any motor complications and to assess any gait improvement in response to treatment. Animals were subjected to CatWalk™ analysis biweekly, where a minimum of three ‘runs’ were collected per animal. The data collected were subsequently examined by CatWalk™ XT 10.0 software to produce a total of 177 inter-paw and intra-paw comparison parameters.
For this reason, it can be assumed that single paw parameters would reveal more sensitive indications of treatment benefits in the short time frame allowed by this acute disease model.

[6] = 9 weeks, mean±SEM, Enbrel 200 μg twice a week, control 0.429±0.30
[7] = 10 weeks, Enbrel 200 μg twice a week, control 0.00

Substance	centre rearing count (no front-limb support) [1, 6] [rears]	centre rearing count (no front-limb support) [1, 7]	rearing activity vs. controls (in words) ([1]; open field)	effect on survival / lifespan (in words) [2]	lifespan ([2]; Enbrel 200 μg/animal twice a week starting at 7 weeks of age, vs. 11.72±0.59 weeks, p=0.4840) [weeks]	body weight relative to initial weight at 7 weeks ([3]; 200 μg Enbrel twice a week, time point not stated, vs. 87.46%, p=0.7270) [%]	effect on body weight (in words) [3]	time spent in rearing ([4]; 8 weeks, 5 min recording, vs. 3.29±1.775, p=0.0447) [s]	time spent in an active state ([4]; 9 weeks, 5 min recording, vs. 143.43±17.625, p=0.0497) [s]	activity parameters vs. vehicle treated control (in words) ([4]; FIG. 6)	single paw gait parameters (in words) [5]	rearing count (front limb support on side walls) ([1]; 8 weeks, mean±SEM, vs. 2.86±1.03, p=0.034) [rears]	rearing count (front limb support on side walls) ([1]; 9 weeks, mean±SEM, vs. 2.00±2.52, p=0.039) [rears]	body weight relative to initial weight at week 7 ([3]; week 8, Remicade 6.25 mg/kg once a week, vs. 101.31%) [%]	body weight relative to initial weight at week 7 ([3]; week 9, Remicade 6.25 mg/kg once a week, vs. 97.16%) [%]	centre rearing count (no front-limb support) ([1]; 8 weeks, mean±SEM, vs. 2.00±1.35, p=0.033) [rears]	centre rearing vs. controls and other treatments (in words) ([1]; open field, FIG. 4B)
Etanercept [Enbrel]	1.71±0.61	1.71 rears and 1.71±0.57 rears	displayed a higher level of rearing activity than control mice	did not cause any significant difference in lifespan	11.26±0.09	89.03	did not cause any significant difference in body weights	16.86 ± 5.79	208.14 ± 23.85	displayed higher activity levels; also recorded: induced higher levels of activity parameters	beneficial effects	–	–	–	–	–	–
Infliximab [Remicade]	–	–	sustained level of rearing activity starting from 7 weeks, higher than the two control groups (untreated and s.c. injected) and maintained up to 12 weeks	Neither did Humira® or Remicade® impact mice survival	–	–	caused significant weight loss at weeks 8 and 9	–	–	–	–	7.80±1.71	7.20±2.27	89.11	80.84	–	–
Adalimumab [Humira]	8.25±2.84	0.00 rears	–	Neither did Humira® or Remicade® impact mice survival	–	–	did not impact mice weight	–	–	–	–	–	–	–	–	10.00±3.58	more effective amongst the other treatments starting from 8 weeks; also recorded: sustained rearing activity beyond all control groups at later time points
